Legend:
Human Factor XIIa = biological target: T1, Human Factor XIIa (Homo sapiens, UniProt P00748); assay: Factor XIIa inhibitory activity in vitro (fluorogenic substrate H-DPro-Phe-Arg-AFC); assay type: biochemical; conditions: 25° C., class symbols, read-out: Human FXIIa IC50
T1 construct: purchased Enzyme Research Laboratories
T1 sequence (P00748 373-615 limits assumed): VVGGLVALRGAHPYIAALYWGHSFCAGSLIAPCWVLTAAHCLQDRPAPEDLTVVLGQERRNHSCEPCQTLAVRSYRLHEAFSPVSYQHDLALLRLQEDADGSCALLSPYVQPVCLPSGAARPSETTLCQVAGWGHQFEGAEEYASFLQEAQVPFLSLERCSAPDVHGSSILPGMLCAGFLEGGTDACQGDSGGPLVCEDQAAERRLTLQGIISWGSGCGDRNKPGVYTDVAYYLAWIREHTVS
Summary of the method: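 Enzyme incubated at 25° C with fluorogenic substrate H-DPro-Phe-Arg-AFC and a range of compound concentrations. Residual activity taken as initial reaction rate from […], giving IC50.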

Human FXIa = biological target: T2, Human FXIa (Homo sapiens, UniProt P03951); assay: FXIa inhibitory activity in vitro (fluorogenic substrate Z-Gly-Pro-Arg-AFC), selectivity; assay type: biochemical; conditions: 25° C.
T2 construct: Human FXIa (Enzyme Research Laboratories) was incubated; purchased Enzyme Research Laboratories
Method: Determination of the % Inhibition for FXIa
Human FXIa (Enzyme Research Laboratories) was incubated at 25° C. with the fluorogenic substrate Z-Gly-Pro-Arg-AFC and various concentrations of the test compound. Residual enzyme activity (initial rate of reaction) was determined by measuring the change in fluorescence at 410 nm and the IC50 value for the test compound was determined.

T2 sequence (P03951 388-625 limits assumed): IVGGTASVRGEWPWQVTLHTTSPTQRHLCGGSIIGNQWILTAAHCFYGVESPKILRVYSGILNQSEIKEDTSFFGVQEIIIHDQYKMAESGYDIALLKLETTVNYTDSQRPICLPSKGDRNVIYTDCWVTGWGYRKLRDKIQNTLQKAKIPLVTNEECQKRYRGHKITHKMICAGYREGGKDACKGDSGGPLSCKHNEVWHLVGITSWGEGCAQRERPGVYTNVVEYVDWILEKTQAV
T2 sequence (P03951 19-387 partner limits assumed): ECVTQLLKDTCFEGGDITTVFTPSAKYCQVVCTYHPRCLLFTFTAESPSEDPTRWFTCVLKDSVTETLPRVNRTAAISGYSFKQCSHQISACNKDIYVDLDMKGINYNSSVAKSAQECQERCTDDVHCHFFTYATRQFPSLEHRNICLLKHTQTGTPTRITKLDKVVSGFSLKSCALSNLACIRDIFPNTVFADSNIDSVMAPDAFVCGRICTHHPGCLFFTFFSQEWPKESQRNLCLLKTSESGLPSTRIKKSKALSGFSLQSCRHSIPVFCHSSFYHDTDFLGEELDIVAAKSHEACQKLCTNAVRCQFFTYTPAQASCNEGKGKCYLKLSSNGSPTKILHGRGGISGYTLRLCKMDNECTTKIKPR

Row | Compound | IC50 (Human Factor XIIa) [µM] | IC50 (Human FXIa; category scale) [µM] | IC50 (Human FXIa; numeric bound printed instead of category) [µM]
1 | N[C@H](CCCCN1CCC(F)(F)CC1)C(=O)N1CC[C@H]1C(=O)NCc1ccc2[nH]cc(Cl)c2c1 [Example 10.12] | 1 to 3 | > 40 | –
2 | C[C@H](NC(=O)[C@@H](N)CCc1ccccn1)C(=O)NCc1ccc2c(N)nccc2c1 [Example 6.12] | 10 to 40 | > 40 | –
3 | C[C@H](NC(=O)[C@H](N)CCc1ccccn1)C(=O)NCc1ccc2c(N)nccc2c1 [Example 6.13] | 0.28 to 1 | > 40 | –
4 | C[C@@H](C(=O)NCc1ccc2c(N)nccc2c1)N(C)C(=O)[C@H](N)CCc1ccccc1 [Example 65.02] | 1 to 3 | > 40 | –
5 | Nc1nccc2cc(CNC(=O)C3(NC(=O)[C@H](N)CCc4ccccc4)CCC3)ccc12 [Example 54.02] | 1 to 3 | 10 to 40 | –
6 | C[C@H](NC(=O)[C@H](N)COc1ccccc1)C(=O)NCc1ccc2c(N)nccc2c1 [Example 6.17] | 10 to 40 | 10 to 40 | –
7 | CC(C)N[C@H](CCCCN1CCCCC1)C(=O)N[C@@H](Cc1ccc(F)c(F)c1)C(=O)NCc1ccc2c(N)nccc2c1 [Example 12.03] | < 0.03 | > 40 | –
8 | C[C@@H]1CCC[C@H](C)N1CC(=O)N[C@H]1CCC[C@@H]1C(=O)NCc1ccc2c(N)nccc2c1 [Example 32.15] | 10 to 40 | > 40 | –
9 | C[C@H](NC(=O)[C@H](N)COCc1ccccc1)C(=O)NCc1ccc2c(N)nccc2c1 [Example 6.16] | 10 to 40 | 10 to 40 | –
10 | CC(C)N[C@H](CCc1ccccc1)C(=O)N1CC[C@H]1C(=O)NCc1cnc2[nH]cc(Cl)c2c1 [Example 27.08] | 0.28 to 1 | > 40 | –
11 | O=C(NCc1ccc2[nH]cc(Cl)c2c1)[C@@H]1CCN1C(=O)CCCCCN1CCCCC1 [Example 10.16] | 10 to 40 | > 40 | –
12 | Nc1nccc2cc(CNC(=O)C3(NC(=O)[C@H](N)CCc4ccccc4)CC3)ccc12 [Example 54.01] | 0.28 to 1 | > 40 | –
13 | C[C@H](NC(=O)[C@@H](CCc1ccccc1)NC1CCCCC1)C(=O)NCc1ccc2c(N)nccc2c1 [Example 6.19] | 0.03 to 0.1 | 0.3 to 1 | –
14 | COc1ccc(-n2ccc(C(F)(F)F)n2)c(CNC(=O)[C@H](C)NC(=O)[C@@H](N)CCc2ccccc2)c1F [Example 9.05] | 10 to 40 | 1 to 3 | –
15 | N=C(N)c1ccc(CNC(=O)[C@H](Cc2ccccc2)NC(=O)[C@@H](CC2CCCCC2)NCC(=O)O)cc1 [Example 71.05] | 3 to 10 | 0.3 to 1 | –
16 | CC(C)N[C@H](CCc1ccccc1)C(=O)N1CC[C@H]1C(=O)NCc1ccc2c(N)nccc2c1 [Example 17.09, (2S)—N-[(1-aminoisoquinolin-6-yl)methyl]-1-[(2R)-2-(isopropylamino)-4-phenylbutanoyl]azetidine-2-carboxamide] | 0.1 to 0.279 | 10 to 40 | –
17 | CC(C)N[C@H](CCCCN1CCCCC1)C(=O)N1CC[C@H]1C(=O)NCc1ccc2[nH]cc(Cl)c2c1 [Example 10.01, (2S)—N-[(3-Chloro-1H-indol-5-yl)methyl]-1-[(2R)-2-(isopropylamino)-6-(piperidin-1-yl)hexanoyl]azetidine-2-carboxamide] | 0.03 to 0.1 | 10 to 40 | –
18 | C[C@H](NC(=O)[C@@H]1NCc2ccccc21)C(=O)NCc1ccc2c(N)nccc2c1 [Example 45.05] | 10 to 40 | > 40 | –
19 | C[C@H](NC(=O)[C@H](N)CCc1ccccc1)C(=O)NCc1ccc2[nH]cc(Cl)c2c1 [Example 9.04] | 3 to 10 | > 40 | –
20 | CC(C)N[C@H](CCCCN1CCCCC1)C(=O)N[C@@H](Cc1c[nH]c2ccccc12)C(=O)NCc1ccc2c(N)nccc2c1 [Example 12.05] | 0.03 to 0.1 | 3 to 10 | –
21 | N[C@H](CCCCn1ccnc1)C(=O)N1CC[C@H]1C(=O)NCc1ccc2[nH]cc(Cl)c2c1 [Example 10.13] | 3 to 10 | > 40 | –
22 | CC(C)N[C@H](CCCCN1CCOCC1)C(=O)N1CC[C@H]1C(=O)NCc1cnc2[nH]cc(Cl)c2c1 [Example 10.05] | 0.28 to 1 | > 40 | –

Results, then the molecule that gave them:

Row | IC50 (Human Factor XIIa) [µM] | IC50 (Human FXIa; category scale) [µM] | IC50 (Human FXIa; numeric bound printed instead of category) [µM] | Compound
23 | 0.28 to 1 | > 40 | – | CC(C)c1cc(C(=O)N[C@@H](Cc2ccc(F)c(F)c2)C(=O)NCc2ccc3c(N)nccc3c2)nc2ncnn12 [Example 0.64, (S)—N-(1-(((1-Aminoisoquinolin-6-yl)methyl)amino)-3-(3,4-difluorophenyl)-1-oxopropan-2-yl)-7-isopropyl-[1,2,4]triazolo[1,5-a]pyrimidine-5-carboxamide]
24 | 0.28 to 1 | 10 to 40 | – | Nc1nccc2cc(CNC(=O)[C@@H]3C[C@@H](c4ccccc4)CN3C(=O)[C@H](N)CCc3ccccc3)ccc12 [Example 43.03]
25 | 10 to 40 | > 40 | – | CC(C)c1ccnc(C(=O)N[C@@H](Cc2ccc(F)c(F)c2)C(=O)NCc2ccc3c(N)nccc3c2)n1 [Example 0.99]
26 | 10 to 40 | > 40 | – | C[C@@H]1CCC[C@H](C)N1CC(=O)N1CCC(C(=O)NCc2ccc3c(N)nccc3c2)C1 (stereo partly drawn) [Example 32.10]
27 | 0.1 to 0.279 | > 40 | – | CC1CCCC(C)N1CC(=O)N[C@@H](Cc1ccc(F)c(F)c1)C(=O)NCc1ccc2c(N)nccc2c1 (stereo partly drawn) [Example 3.01]
28 | 10 to 40 | 3 to 10 | – | C[C@H](NC(=O)[C@H]1Cc2ccccc2CN1)C(=O)NCc1ccc2c(N)nccc2c1 [Example 45.04]
29 | 10 to 40 | 10 to 40 | – | CC(C)N[C@H](Cc1c[nH]c2ccccc12)C(=O)N1CC[C@H]1C(=O)NCc1ccc2[nH]cc(Cl)c2c1 [Example 10.18]
30 | 0.28 to 1 | 10 to 40 | – | CC(C)N[C@H](CCCCN1Cc2ccccc2C1)C(=O)N1CC[C@H]1C(=O)NCc1ccc2[nH]cc(Cl)c2c1 [Example 10.11]
31 | 0.03 to 0.1 | > 40 | – | CC(C)N[C@H](CCCCN1CCCCC1)C(=O)N[C@@H](Cc1ccc(F)c(F)c1)C(=O)NCc1cnc2[nH]cc(Cl)c2c1 [Example 27.04]
32 | 10 to 40 | 3 to 10 | – | Nc1nccc2cc(CNC(=O)[C@H]3CCC[C@@H]3NC(=O)[C@H](N)CCc3ccccc3)ccc12 [Example 17.07]
33 | 10 to 40 | > 40 | – | C[C@@H]1CCC[C@H](C)N1CC(=O)N1CC2CC(C(=O)NCc3ccc4c(N)nccc4c3)C1C2 (stereo partly drawn) [Example 32.14]
34 | 0.28 to 1 | 10 to 40 | – | CC(C)N[C@H](CCCN1CCCCC1)C(=O)N[C@@H](Cc1ccc(F)c(F)c1)C(=O)NCc1ccc2c(N)nccc2c1 [Example 12.04]
35 | 10 to 40 | 3 to 10 | – | COc1cc2c(N)nccc2cc1CNC(=O)[C@H](C)NC(=O)[C@H](N)CCc1ccccc1 [Example 6.22]
36 | 0.28 to 1 | > 40 | – | CN[C@H](CCc1ccccc1)C(=O)N1CC[C@H]1C(=O)NCc1ccc2c(N)nccc2c1 [Example 17.08]
37 | 10 to 40 | > 40 | – | N[C@H](CCCCO)C(=O)N1CC[C@H]1C(=O)NCc1ccc2[nH]cc(Cl)c2c1 [Example 10.06]
38 | 0.28 to 1 | > 40 | – | CC(C)N[C@H](CCCCN1CCCCC1)C(=O)N1C[C@@H](c2ccc(F)c(F)c2)[C@H]1C(=O)NCc1ccc2[nH]cc(Cl)c2c1 [Example 10.07]
39 | 0.28 to 1 | 3 to 10 | – | C[C@H](NC(=O)[C@H]1C[C@@H](c2ccccc2)CN1)C(=O)NCc1ccc2c(N)nccc2c1 [Example 45.01]
40 | 1 to 3 | – | > 10 | N=C(N)c1ccc(CNC(=O)[C@H](Cc2cccc3ccccc23)NC(=O)c2ccccn2)cc1 [Example 71.02]
41 | 3 to 10 | 10 to 40 | – | C[C@@H]1CCC[C@H](C)N1CC(=O)NC1(C(=O)NCc2ccc3c(N)nccc3c2)CCC1 [Example 39.10]
42 | 3 to 10 | > 40 | – | CC(C)n1ccc(C(=O)N[C@@H](Cc2ccc(F)c(F)c2)C(=O)NCc2ccc3c(N)nccc3c2)cc1=O [Example 0.96]
43 | 10 to 40 | > 40 | – | CC(C)Oc1cc(C(=O)N[C@@H](Cc2ccc(F)c(F)c2)C(=O)NCc2ccc3c(N)nccc3c2)ccn1 [Example 0.95]
44 | 3 to 10 | > 40 | – | CC(C)N[C@H](CCCCN1CCCCC1)C(=O)N[C@@H](Cc1ccc(-c2ccccc2)cc1)C(=O)NCc1ccc2c(N)nccc2c1 [Example 12.10]
45 | 10 to 40 | > 40 | – | C[C@@H]1CCC[C@H](C)N1CC(=O)N1C[C@H]2[C@@H]([C@H]1C(=O)NCc1ccc3c(N)nccc3c1)C2(C)C [Example 32.13]

— patent US20220298138A1, “ENZYME INHIBITORS” (KALVISTA PHARMACEUTICALS LIMITED, priority 2019, published 2022)
